According to patent US5866775A, “Glyphosate-tolerant 5-enolpyruvyl-3-phosphoshikimate synthases” (Monsanto Company, priority 1990, dated 1999):

How the values were obtained:
[1] = tested on: petunia plants transformed with pMON546 (CaMV35S/wild-type petunia EPSP synthase); test: Plant response to glyphosate spraying, chimeric EPSPS plants; format: in vivo; settings: 0.8 #/acre acid equivalent (0.897 kg/hectare), isopropylamine salt, spray
Source text: Transformed petunia plants were produced by regeneration from the above-described transformed leaf disks by the procedure described by Horsch, et al. (1985). The transformed plants obtained contained the pMON546 vector, described hereinabove, which contains the CaMV35S promoter fused to the wild-type petunia EPSP synthase gene.
(§1) Four individual representative transgenic seedlings were selected, grown and tested in the testing procedure described below, along with four individual non-transformed (wild-type) petunia seedlings.
(§2) The plants were grown in a growth medium in a growth chamber at 26° C. with 12 hours of light per day. The plants were fertilized weekly with a soluble fertilizer and watered as needed. The plants were sprayed at a uniform and reproducible delivery rate of herbicide by use of an automated track sprayer. The glyphosate solution used was measured as pounds of glyphosate acid equivalents per acre, mixed as the glyphosate isopropylamine salt, with an ionic surfactant.
Four individual wild-type (non-transformed) petunia plants were selected for use as control plants. Four individual transformed plants containing the pMON546 vector were selected by kanamycin resistance as described by Horsch, et al. (1985). […]

[2] = molecular target: T1, EPSPS in crude extracts of tobacco plants transformed with pMON10079 (Petunia hybrida, UniProt P11043, A264T/G173A); test: EPSPS assay of crude plant extracts in the presence of glyphosate; format: biochemical; settings: 1.0 mM glyphosate; eleven transformed plants
T1 construct: an alanine to threonine substitution at position 192 of the mature EPSPS enzyme has also been introduced into other plant species such as tobacco; expressed in transfected cells; host or cells: transgenic tobacco plants (pMON10079), crude plant extracts
T1 sequence (P11043 73-516 G173A/A264T): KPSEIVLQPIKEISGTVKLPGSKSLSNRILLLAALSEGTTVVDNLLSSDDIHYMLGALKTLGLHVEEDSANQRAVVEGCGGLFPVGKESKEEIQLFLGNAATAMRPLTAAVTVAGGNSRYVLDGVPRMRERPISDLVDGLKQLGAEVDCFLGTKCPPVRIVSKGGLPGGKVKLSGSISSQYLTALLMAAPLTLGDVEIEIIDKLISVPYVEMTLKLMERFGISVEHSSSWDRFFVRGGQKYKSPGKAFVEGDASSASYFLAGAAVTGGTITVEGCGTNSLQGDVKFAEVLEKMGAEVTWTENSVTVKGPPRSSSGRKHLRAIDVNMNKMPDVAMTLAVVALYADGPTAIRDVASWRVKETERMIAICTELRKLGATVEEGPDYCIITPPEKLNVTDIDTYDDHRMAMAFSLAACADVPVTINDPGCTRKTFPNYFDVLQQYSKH
Source text: Thus, the petunia EPSPS variant with the glycine to alanine substitution at position 101 and the alanine to threonine substitution at position 192 does confer glyphosate tolerance to transformed plants.

[3] = tested on: tobacco plants transformed with glyphosate-tolerant petunia EPSP synthase (pMON567); test: Relative effect of glyphosate spray, GT plants; format: in vivo, Nicotiana tobacam CV H425
Source text: (§3) A culture of A. tumefaciens cells containing pMON567/pGV3111-SE was co-cultured with leaf disks taken from tobacco plants (Nicotiana tobacam CV H425) as described by Horsch (1985). The Agrobacterium cells inserted the variant EPSP synthase gene into the chromosomes of the plant cells. Plant cells resistant to kanamycin were selected and regenerated into differentiated plants by the procedure of Horsch (1985).
(§4) Progeny of these plants were propagated and grown to a rosette diameter of about 10 cm corresponding to a plant age of about four weeks. The plants were sprayed with glyphosate at levels corresponding to 0.4, 2.0 and 3.6 pounds acid equivalent/acre. The effect of glyphosate on the transformed plants were scored at 7, 14 and 28 days. The effect was translated to a numerical scale of 0-10 in which 0 represents total kill and 10 is the normal, unsprayed plant. […] The values represent the best transformant for both wild-type EPSP synthase and glypho sate-tolerant EPSP synthase genes.

[4] = tested on: bacteria harboring pMON342 or pMON9566; test: Glyphosate tolerance of bacteria expressing petunia EPSPS from the double pL promoter; format: cell-based, E. coli; settings: either plasmid
Protocol: The double pL promoter used to express the petunia EPSP synthase in pMON342 and pMON9566 leads to a very high level of expression of the enzyme. The enzyme is present at such high concentration that bacteria harboring either of these plasmids are tolerant to very high levels of glyphosate (>5 mM) in growth media, even though the enzyme produced by pMON342 is the wild type form. […] A plasmid for identifying such a promoter was constructed as follows: pMON9544, the precursor to pMON342, was digested with BamHI to remove the pL promoters, and was recircularized by ligation resulting in pMON362. The EcoRI fragment of pMON9556 containing the 3'portion of the petunia EPSPS cDNA was then inserted into the EcoRI site of this plasmid reconstituting the entire coding sequence. The resulting plasmid, pMON364 is identical to pMON342 except that there is no promoter 5' of the EPSP synthase coding sequence.

[5] = tested on: non-transformed canola plants; test: Glyphosate spray of canola, non-transformed controls; format: in vivo; settings: 0.56 kg/ha spray
Source text: A total of 15 transgenic canola plants containing the pMON10074 construct, and 2 non-transformed controls were sprayed with glyphosate at a commercial rate of 0.56 kg/ha. The effect of glyphosate on both the vegetative and reproductive performance of the sprayed plants was scored at 7, 14 and 28 days after spray. The effect of glyphosate was translated to a numerical scale of 0-10, where 0 represents total kill and 10 represents the normal, unsprayed plant. The non-transformed controls had vegetative scores of 2 after 14 days and reproductive scores of 0 after 28 days.

[6] = tested on: petunia leaf disks transformed with control vector pMON505; test: Leaf disk callus growth on glyphosate medium, control disks; format: cell-based; settings: within 10 days
Protocol: Leaf disks with diameters of 6 mm (1/4 inch) were taken from surface-sterilized petunia leaves. They were cultured on MS104 agar medium for 2 days to promote partial cell wall formation at the wound surfaces. They were then submerged in a culture of A. tumefaciens cells containing both pMON546 and GV3111-SE which had grown overnight in Luria broth at 28° C., and shaken gently. The leaf disks were removed from the bacterial suspension, blotted dry, and incubated upside down on filter paper placed over "nurse" cultures of tobacco cells, as described by Horsch (1980). After 2 or 3 days, the disks were transferred to petri dishes containing MS media with 500 μg/ml carbenicillin and 0. 0.1, 0.25, or 0.5 mM glyphosate (sodium salt), with no nurse cultures.
Control tissue was created using A. tumefaciens cells containing the helper plasmid pGV3111-SE and a different plant transformation vector, pMON505, which contained a T-DNA region with a NOS/NPTII/NOS kanamycin resistance gene and a NOS selectable marker gene identical to pMON546, but without the CaMV35S/EPSP synthase gene.

[7] = tested on: tobacco plants transformed with wild-type EPSP synthase; test: Relative effect of glyphosate spray, WT plants; format: in vivo, Nicotiana tobacam CV H425
Source text: as §3, §4

[8] = tested on: wildtype petunia plant or transformed with control vector (pMON505); test: Plant response to glyphosate spraying, control plants; format: in vivo; settings: 0.8 #/acre acid equivalent (0.897 kg/hectare), isopropylamine salt, spray
Protocol: as §1, §2
Four individual wild-type (non-transformed) petunia plants were selected for use as control plants. Four individual transformed plants containing the pMON546 vector were selected by kanamycin resistance as described by Horsch, et al. (1985).
The control plants and the transformed plants were sprayed with the isopropylamine salt of glyphosate at the application level listed in Table 2 below; the experimental results obtained are also summarized in Table 2.

[9] = 0.4 pounds/acre (0.448 kg/hectare), day 7, best transformant
[10] = 0.4 pounds/acre (0.448 kg/hectare), day 14, best transformant
[11] = 0.4 pounds/acre (0.448 kg/hectare), day 28, best transformant
[12] = 2.0 pounds/acre (2.242 kg/hectare), day 7, best transformant
[13] = 2.0 pounds/acre (2.242 kg/hectare), day 14, best transformant
[14] = 2.0 pounds/acre (2.242 kg/hectare), day 28, best transformant
[15] = 3.6 pounds/acre (4.035 kg/hectare), day 7, best transformant
[16] = 3.6 pounds/acre (4.035 kg/hectare), day 14, best transformant
[17] = 3.6 pounds/acre (4.035 kg/hectare), day 28, best transformant

Which results are given for `O=C(O)CNCP(=O)(O)O` [glyphosate, N-phosphonomethylglycine]?
Visual Appearance [1]: growing well; glyphosate resistance of plant EPSPS [2]: all eleven exhibited glyphosate resistance; Relative Effect of Glyphosate (0 total kill, 10 no effect) [3, 9]: 8.0; Relative Effect of Glyphosate (0 total kill, 10 no effect) [3, 10]: 8.0; Relative Effect of Glyphosate (0 total kill, 10 no effect) [3, 11]: 9.0; Relative Effect of Glyphosate (0 total kill, 10 no effect) [3, 12]: 8.0; Relative Effect of Glyphosate (0 total kill, 10 no effect) [3, 13]: 8.3; Relative Effect of Glyphosate (0 total kill, 10 no effect) [3, 14]: 7.0; Relative Effect of Glyphosate (0 total kill, 10 no effect) [3, 15]: 5.0; Relative Effect of Glyphosate (0 total kill, 10 no effect) [3, 16]: 7.4; Relative Effect of Glyphosate (0 total kill, 10 no effect) [3, 17]: 7.0; glyphosate level tolerated in growth media [4]: > 5 mM; vegetative score (scale 0-10, 0 total kill, 10 normal unsprayed plant) ([5]; after 14 days): 2; reproductive score (scale 0-10, 0 total kill, 10 normal unsprayed plant) ([5]; after 28 days): 0; callus growth ([6]; 0.25 mM glyphosate (sodium salt)): very little growth of callus from control disks; callus growth ([6]; 0.5 mM glyphosate (sodium salt)): no callus growth from the control disks; Relative Effect of Glyphosate (0 total kill, 10 no effect) [7, 9]: 6.0; Relative Effect of Glyphosate (0 total kill, 10 no effect) [7, 10]: 7.0; Relative Effect of Glyphosate (0 total kill, 10 no effect) [7, 11]: 9.0; Relative Effect of Glyphosate (0 total kill, 10 no effect) [7, 12]: 5.0; Relative Effect of Glyphosate (0 total kill, 10 no effect) [7, 13]: 1.8; Relative Effect of Glyphosate (0 total kill, 10 no effect) [7, 14]: 0.8; Relative Effect of Glyphosate (0 total kill, 10 no effect) [7, 15]: 5.0; Relative Effect of Glyphosate (0 total kill, 10 no effect) [7, 16]: 1.7; Relative Effect of Glyphosate (0 total kill, 10 no effect) [7, 17]: 0.8; Visual Appearance [8]: completely dead
